Experimental data published in patent publication US20110160303A1, “N-ALKYLCARBONYL-AMINO ACID ESTER AND N-ALKYLCARBONYL-AMINO LACTONE COMPOUNDS AND THEIR USE” (Edward Tak WEI, priority 2005, published 2011).
Values belong to the compound of their own block, whether it stands above or below them.

What was measured:
skin above the upper lip = test: Cooling sensation on facial skin, ointment applied to skin above the upper lip; format: in vivo, human; design: key to refreshing cooling and absence of skin irritation or eye irritation (“perfect cool”): (*) denotes compounds with refreshing cooling and absence of skin irritation or eye irritation after facial skin or periorbital applications; a “perfect cool.”; conditions: for Duration of Skin Cooling: 40 mM (1% wt/vol) ointment; for Duration of Skin Cooling / Duration of Action On-Off (minutes): On (onset) / Duration of Action On-Off (minutes): duration (offset minus onset) / Duration of Action On-Off (minutes): Off (offset): skin above upper lip; for Duration of Action On-Off (minutes): On (onset): 40 mM (~1% wt/vol) Aquaphor ointment, 40 to 70 mg, time to reach 2 units of coolness; for Duration of Action On-Off (minutes): duration (offset minus onset) / Duration of Action On-Off (minutes): Off (offset): 40 mM Aquaphor ointment; for Duration of Action On-Off (minutes): Off (offset): time when coolness drops below 2 units; for refreshing cooling and absence of skin irritation or eye irritation (“perfect cool”): after facial skin or periorbital applications
From the text: A reliable place for topical application is the skin above the upper lip (above the vermilion border of the lips), on the philtrum, lateral to the philtrum until the nasolabial folds, and on the lower nostrils (subnasale). This part of the face is known to be densely innervated with cold receptors, second only to the surfaces of the eyeball and anogenitalia. A second location is on or below the malar eminence (cheekbone). The skin above the cheekbone is thicker than above the lips, and therefore has a higher threshold for activation. At both loci, tingling, cool and cold sensations in the skin may be experienced and rated for time of onset and intensity.
The intensity of the subjective skin sensation is rated as 0, 1, 2 or 3 with: 0 as no change; 1 as slight coolness, cold, or tingling; 2 as clear-cut signal of coolness, cold, or tingling; and 3 as robust cooling or cold. The intervals for recording sensations are 5 to 10 minutes, until two successive zeroes are obtained. The results (shown in FIGS. 1 and 2) are averaged values of 4 to 6 separate trials in the same individual. The data are plotted using SigmaPlot® (Systat Software, Point Richmond Calif.) and a smoothing function with a negative exponential was used for analysis and statistical fit of the results. Confirmatory trials of cooling action of the long-acting NACE compounds were obtained in 2 to 4 individuals but not quantified for some because of the large number of chemicals that were evaluated.
(§1) The onset of drug action is taken as the time to reach 2 units of coolness intensity, and offset of drug action is the time when coolness intensity drops below 2, after previously surpassing 2 units. The duration of cooling action is defined as the offset time minus the onset time. […] The quality of the sensation is noted, for example, as pure refreshing coolness, or if the sensation is accompanied by irritation (stinging or burning). The quality of the sensation is not rated for intensity.
For bioassay on the skin, approximately 30 mg was stirred and dissolved in 3 g of warm liquid Aquaphor® ointment to a yield a 40 mM (˜1% wt/vol) ointment. The exact amount was adjusted so that the molar equivalent was about 35 to 40 mM. After cooling, 40 to 70 mg of the solid ointment was placed on the tip of a plastic stick and applied to the skin above the upper lip, on the philtrum, and lateral to the philtrum, up to the nasolabial folds, of test subjects and the onset and duration of cooling sensations noted.
The intensity of the subjective skin sensation was rated as 0, 1, 2 or 3 with: 0 as no change; 1 as slight coolness, cold, or tingling; 2 as clear signal of coolness, cold, or tingling; and 3 as robust cooling or cold. The intervals for recording sensations were 5 to 10 minutes, until two successive zeroes were obtained. The results (shown in FIGS. 1 and 2) are averaged values of 4 to 6 separate trials in the same individual. The data are plotted using SigmaPlot® (Systat Software, Point Richmond, Calif., USA) and a smoothing function with a negative exponential was used for analysis and statistical fit of the results.
as §1, with “was” for “is”, “was also noted: such” for “is noted, for example,”
Test compounds were singly applied to the skin above the upper lips at a 40 to 70 mg dose of a 1% wt/vol ointment.

oral cavity = test: Oral cavity test, substance placed on dorsal surface of the tongue; format: in vivo, human; conditions: for sensory irritation in the mouth: Study 7, same test conditions
Procedure: The subject is instructed to close and hold the substance in the mouth for at least 10 seconds and not to swallow. The description of sensations is then recorded at 5 minute intervals.
The compounds of Formula (1) and (2) are white crystalline solids at room temperatures. These compounds were tested as such, or mixed 1:1 with powdered or granulated sugar. The test substances were applied at 1 to 5 mg on the mid-point of the dorsal surface of the tongue using a metal spatula or a plastic applicator. After depositing the test substance on the tongue, the subject was instructed to keep the mouth closed and allow the fluids of the mouth to inter-mix with the test substance and to distribute it to the back of the mouth (oropharynx). The presence and duration of subjective sensations from the mouth was then noted.
In normal subjects, the effects of the D-Ala methyl and ethyl ester compounds falling within Formula (1) ((R)-2-[((1R,2S,5R)-2-isopropyl-5-methyl-cyclohexanecarbonyl)-amino]-propionic acid methyl or ethyl ester)) were examined. Three doses of 1, 2 and 4 mg per application were examined and compared to a similar dose of the L-Ala methyl or ester analog ((S)-2-[((1R,2S,5R)-2-isopropyl-5-methyl-cyclohexanecarbonyl)-amino]-propionic acid methyl or ethyl ester). At the 2 or 4 mg dose, all compounds produced pleasant and robust cooling sensations on the tongue, extending down to the back of throat, and lasted for about 30 minutes and longer. The onset effect was usually within 30 seconds of application.

face = test: Study 3: towelette used to wipe the face; format: in vivo, human
Procedure: 2-Isopropyl-5-methyl-cyclohexanecarbonyl D-alanine methyl ester was dissolved in warm 10% propylene-glycol/90% distilled water solution to give a concentration of either 0.1 or 0.5% wt/vol (1 or 5 mg/mL). Six to seven milliliters of these solutions were then applied with a pipette onto a paper napkin (Luncheon Napkins, Kirkland Signature brand from Costco, Inc.) The napkin was 1-ply with a 30.4×29.5 cm dimension. Each napkin was then hermetically sealed in a plastic envelope (Foodsaver by Tilia). On two separate occasions involving golfing trips to Los Angeles, Calif., USA, where air temperatures exceeded […] (90° F.), these towelettes were used to wipe the face. Pleasant cooling sensations were obtained that lasted for about 10 minute for the 0.1% concentration towelette and about 60 minutes for the 0.5% towelette.

periorbital area = test: Study 4: 1% ointment applied bilaterally to the periorbital area; format: in vivo, human; conditions: for irritation of skin and eye surfaces: periorbital application
From the text: A 1% preparation of 2-isopropyl-5-methyl-cyclohexanecarbonyl D-alanine methyl ester in Aquaphor® ointment was applied bilaterally to the periorbital area of four individuals. […] This alerting effect lasted for about one hour. This experiment was then repeated three days later in the evening with the same individuals whose occupations required daylong activities before a computer screen. Again, application of the ointment about the periorbital area was reported to relieve fatigue, enhance visual acuity, and to increase attention span and focus. Sensations of refreshment and improved mood were also noted.

[1] = test system: irritated skin (acneiform dermatitis treated with Tazorac); test: Study 5: ointment on skin irritated by Tazorac; format: in vivo, human; conditions: 1.5% in Aquaphor
Procedure: A person was treated with Tazorac® (tazarotene topical gel) for acneiform dermatitis on their cheeks. After using these medications for several days, they noted redness, itching, and uncomfortable burning sensations on the skin where these medications had been placed. A 1.5% preparation of 2-isopropyl-5-methyl-cyclohexanecarbonyl α-alanine methyl ester in Aquaphor® ointment was then applied to the sites of irritation. Sensations of coolness on the skin were noted within 5 minutes and lasting for an average of 30 minutes. The discomfort of the irritated skin was abated within five minutes and the subject felt better.

tongue = test: Threshold for cooling on the tongue; format: in vivo, human; conditions: for Threshold tongue: threshold for cooling on the tongue
Procedure: Watson et al. (U.S. Pat. No. 4,178,459) tested the properties of N-substituted p-menthane carboxamides on volunteers by putting filter paper (1×1 cm), impregnated with a known amount of compound, onto the dorsal surface of the tongue of the test subject. After 30 seconds, the subject was required to report presence or absence of a cooling effect. […] The average threshold of (−)-menthol for 6 subjects was 0.25 μg, but there was a 100-fold variation in individual sensitivity. As noted above, coolness signals detected from the dorsal surface of the tongue may be confounded by gustatory, olfactory, and other variables, as well as by dilution from saliva. The octanol/water partition coefficients (given in log P units) for a number of compounds were determined and are shown in Table 7, together with the threshold for cooling on the tongue tested at 40 mM. […] A longer duration of action was not precisely matched with log P values.

[2] = Octanol/water partition coefficient; format: physicochemical
Procedure: The octanol/water partition coefficients (given in log P units) for a number of compounds were determined and are shown in Table 7, together with the threshold for cooling on the tongue tested at 40 mM. […] A longer duration of action was not precisely matched with log P values.

[3] = 1% in Aquaphor, periorbital, four individuals

SMILES: COC(=O)[C@@H](C)NC(=O)[C@@H]1C[C@H](C)CC[C@H]1C(C)C [D-Ala Me Ester, (R)-2-[((1R,2S,5R)-2-isopropyl-5-methyl-cyclohexanecarbonyl)-amino]-propionic acid methyl ester]
Duration of Skin Cooling (skin above the upper lip): 1.9 h | Duration of Action On-Off (minutes): On (onset) (skin above the upper lip): 1 min | Duration of Action On-Off (minutes): duration (offset minus onset) (skin above the upper lip): 114 min | Duration of Action On-Off (minutes): Off (offset) (skin above the upper lip): 115 min | refreshing cooling and absence of skin irritation or eye irritation (“perfect cool”) (skin above the upper lip): D-Ala Me Ester (*) | duration of cooling sensations on the tongue (oral cavity; dose of 1 to 2 mg, normal subjects): about 30 minutes | duration of pleasant cooling sensations, 0.1% towelette (face; 0.1% wt/vol in 10% propylene-glycol/90% water on napkin, face): about 10 minute | eye irritation (face; 0.1 or 0.5% towelette): No eye irritation | duration of pleasant cooling sensations, 0.5% towelette (face; 0.5% wt/vol in 10% propylene-glycol/90% water on napkin, face): about 60 minutes | duration of alerting effect (periorbital area; 1% in Aquaphor, periorbital): about one | duration of coolness on the skin (average) (periorbital area; [3]): 30 min | onset of coolness on the skin (periorbital area; [3]): ≤ 1 min | irritation of skin and eye surfaces (periorbital area): No irritation of the eye surfaces | duration of coolness on irritated skin (average) [1]: 30 min | time until discomfort of the irritated skin was abated [1]: five | onset of sensations of coolness on irritated skin ([1]; one subject): ≤ 5 min

SMILES: CCOC(=O)CNC(=O)[C@@H]1C[C@H](C)CC[C@H]1C(C)C [Gly Et Ester (WS-5), N-p-menthanecarbonyl glycine ethyl ester, reference compound]
Duration of Skin Cooling (skin above the upper lip): 0.5 h | Duration of Action On-Off (minutes): On (onset) (skin above the upper lip): 4 min | Duration of Action On-Off (minutes): duration (offset minus onset) (skin above the upper lip): 33 min | Duration of Action On-Off (minutes): Off (offset) (skin above the upper lip): 37 min | refreshing cooling and absence of skin irritation or eye irritation (“perfect cool”) (skin above the upper lip): Gly Et Ester (WS-5) (*) | Threshold tongue (tongue): 0.2 µg | logP [2]: 2.9 | sensory irritation in the mouth (oral cavity): some sensory irritation

SMILES: CCOC(=O)CN(C)C(=O)C1CC(C)CCC1C(C)C (stereo not drawn) [Sar Et Ester]
Duration of Skin Cooling (skin above the upper lip): 1.0 h | Duration of Action On-Off (minutes): On (onset) (skin above the upper lip): 2 min | Duration of Action On-Off (minutes): duration (offset minus onset) (skin above the upper lip): 63 min | Duration of Action On-Off (minutes): Off (offset) (skin above the upper lip): 65 min | refreshing cooling and absence of skin irritation or eye irritation (“perfect cool”) (skin above the upper lip): Sar Et Ester (*) | duration of action relative to WS-11 (skin above the upper lip; in vivo): five | times less potent than WS-11 on the tongue threshold test (tongue; in vivo): 2.7 times | Threshold tongue (tongue): 0.8 µg | Log P [2]: 2.9 | sensory irritation in the mouth (oral cavity): some sensory irritation

SMILES: CNC(=O)C(C)(C(C)C)C(C)C [WS-23, N-2,3-trimethyl-2-isopropylbutanamide, reference compound]
irritation of skin and eye surfaces (periorbital area): significant skin and eye irritation

Continued, in another order:

Log P [2]: 3.7
SMILES: CCNC(=O)C1CC(C)CCC1C(C)C (stereo not drawn) [WS-3, reference compound]
Duration of Action On-Off (minutes): On (onset) (skin above the upper lip): 5 min | Duration of Action On-Off (minutes): Off (offset) (skin above the upper lip): 23 min | Threshold tongue (tongue): 0.2 µg | irritation of skin and eye surfaces (periorbital area): significant skin and eye irritation

Log P [2]: 2.9
SMILES: CC1CCC(C(C)C)C(C(=O)NC(C)(C)CO)C1 (stereo not drawn) [WS-11, reference compound]
Duration of Skin Cooling (skin above the upper lip): 0.2 h | Duration of Action On-Off (minutes): On (onset) (skin above the upper lip): 8 min | Duration of Action On-Off (minutes): duration (offset minus onset) (skin above the upper lip): 10 min | Duration of Action On-Off (minutes): Off (offset) (skin above the upper lip): 18 min | Threshold tongue (tongue): 0.3 µg | irritation of skin and eye surfaces (periorbital area): significant skin and eye irritation

Log P [2]: 4.5
SMILES: CC1CCC(C(C)C)C(C(=O)NC(C)(C)C)C1 (stereo not drawn) [WS-14, reference compound]
Duration of Skin Cooling (skin above the upper lip): 0.1 h | Duration of Action On-Off (minutes): On (onset) (skin above the upper lip): 15 min | Duration of Action On-Off (minutes): duration (offset minus onset) (skin above the upper lip): 8 min | Duration of Action On-Off (minutes): Off (offset) (skin above the upper lip): 23 min | Threshold tongue (tongue): 0.4 µg | irritation of skin and eye surfaces (periorbital area): significant skin and eye irritation
